Laboratory results as given in patent publication US11077100B2, “Tetrahydroquinoline derivatives as P2X7 receptor antagonists” (RaQualia Pharma Inc., priority 2017, dated 2021).

Columns and labels:
[1] = target: human P2X7 (Homo sapiens (Human), UniProt Q99572); assay: Human P2X7 functional assay (Ca2+ influx, Fluo-4, FDSS); type: cell-based; conditions: antagonistic activity with respect to the human P2X7 receptor; BzATP final concentration 80 microM
Summary of the method: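 HEK293 cells stably expressing C-terminally FLAG-tagged human P2X7, loaded with Fluo-4. Compounds were preincubated for 10 min at room temperature, then 80 μM BzATP (final) was added and Ca2+ fluorescence read at 540 nm (480 nm excitation) by FDSS. IC50 values come from 7-point curves, duplicate wells.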

[2] = target: rat P2X7 (Rattus norvegicus (Rat), UniProt Q64663); assay: Rat P2X7 functional assay (Ca2+ influx, Fluo-4, FDSS); type: cell-based; conditions: HEK293 cells stably expressing rat P2X7; BzATP final 10 microM; 7-point dose-response; read-out: Antagonistic activities with respect to the rat P2X7 receptor (IC50)
Sequence of rat P2X7 (Q64663 whole entry): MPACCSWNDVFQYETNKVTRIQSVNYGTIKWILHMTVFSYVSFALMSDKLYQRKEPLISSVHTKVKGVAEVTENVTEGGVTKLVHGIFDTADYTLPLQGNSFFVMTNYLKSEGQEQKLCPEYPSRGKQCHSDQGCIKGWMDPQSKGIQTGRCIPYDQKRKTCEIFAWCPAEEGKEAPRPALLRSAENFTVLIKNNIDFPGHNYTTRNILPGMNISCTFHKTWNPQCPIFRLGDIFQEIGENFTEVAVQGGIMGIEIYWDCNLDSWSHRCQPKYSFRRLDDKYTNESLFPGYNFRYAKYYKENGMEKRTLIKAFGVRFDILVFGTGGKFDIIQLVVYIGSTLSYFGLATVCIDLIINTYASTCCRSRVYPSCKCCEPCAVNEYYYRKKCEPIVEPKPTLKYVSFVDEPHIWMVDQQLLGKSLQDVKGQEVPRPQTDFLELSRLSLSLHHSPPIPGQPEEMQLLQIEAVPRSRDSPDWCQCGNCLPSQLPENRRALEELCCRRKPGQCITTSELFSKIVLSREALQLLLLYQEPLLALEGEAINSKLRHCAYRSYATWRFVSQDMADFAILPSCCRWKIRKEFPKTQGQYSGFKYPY
Summary of the method: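 HEK293 cells stably expressing rat P2X7 (5,000/well, plated 24 h before) loaded with Fluo-4; compounds preincubated 10 min at room temperature, then Ca2+ rise after 10 microM BzATP (final) read on FDSS (480/540 nm). IC50 from 7-point curves, duplicate wells.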

Sequence of human P2X7 (Q99572 whole entry): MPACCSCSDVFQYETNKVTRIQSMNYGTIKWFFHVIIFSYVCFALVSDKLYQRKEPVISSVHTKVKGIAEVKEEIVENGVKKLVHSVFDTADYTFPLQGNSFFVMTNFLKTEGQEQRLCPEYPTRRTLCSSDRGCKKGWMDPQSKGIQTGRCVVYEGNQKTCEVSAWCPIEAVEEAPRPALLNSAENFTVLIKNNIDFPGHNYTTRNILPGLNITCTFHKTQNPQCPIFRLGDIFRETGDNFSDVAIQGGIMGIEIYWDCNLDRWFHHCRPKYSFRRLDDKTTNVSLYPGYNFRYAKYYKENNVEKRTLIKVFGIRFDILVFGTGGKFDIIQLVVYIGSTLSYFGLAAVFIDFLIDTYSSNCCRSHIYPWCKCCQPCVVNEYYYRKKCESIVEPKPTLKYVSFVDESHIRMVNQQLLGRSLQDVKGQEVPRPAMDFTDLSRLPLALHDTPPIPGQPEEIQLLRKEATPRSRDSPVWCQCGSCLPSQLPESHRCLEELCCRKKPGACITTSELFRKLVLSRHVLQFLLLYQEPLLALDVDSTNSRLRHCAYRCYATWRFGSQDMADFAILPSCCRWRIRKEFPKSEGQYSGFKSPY

SMILES	IC50 [1]	IC50 [2]
CO[C@H]1CC[C@@](F)(C(=O)NCc2ccc(F)cc2F)c2cccnc21 [Example 342, (5S,8S)-N-(2,4-difluorobenzyl)-5-fluoro-8-methoxy-5,6,7,8-tetrahydroquinoline-5-carboxamide]	50 to 100 nM	< 1000 nM
O=C(NCc1c(Cl)cc(Cl)cc1CO)[C@]1(F)CC[C@H](OCCO)c2ncccc21 [Example 343, (5S,8S)-N-(2,4-dichloro-6-(hydroxymethyl)benzyl)-5-fluoro-8-(2-hydroxyethoxy)-5,6,7,8-tetrahydroquinoline-5-carboxamide]	< 50 nM	< 1000 nM
O=C(NCc1ccc(Cl)cc1Cl)[C@]1(F)CC[C@H](OCC(O)CO)c2ncccc21 (stereo partly drawn) [Example 349, (5S,8S)—N-(2,4-dichlorobenzyl)-8-(2,3-dihydroxypropoxy)-5-fluoro-5,6,7,8-tetrahydroquinoline-5-carboxamide]	< 50 nM	< 1000 nM
O=C(NCc1ccc(Cl)cc1Cl)[C@]1(F)CCC(S(=O)(=O)CCO)c2ncccc21 (stereo partly drawn) [Example 351, (5S)-N-(2,4-clichlorebenzyl)-5-fluoro-8-((2-hydroxyethyl)sulfenyl)-5,6,7,8-letrahydroquineline-5-carboxamide]	< 50 nM	< 1000 nM
O=C(NCc1cccc(C(F)(F)F)c1Cl)[C@@]1(F)CC[C@H](F)c2ncccc21 [Example 352, (5R,8S)-N-(2-chloro-3-(trifluoromethyl)benzyl)-5,8-difluoro-5,6,7,8-tetrahydroquinoline-5-carboxamide]	< 50 nM	< 1000 nM

Further lines, results first:

IC50 [1]	IC50 [2]	SMILES
< 50 nM	< 1000 nM	O=C(NCc1ccc(F)cc1Cl)[C@]1(F)CC[C@H](OCCO)c2ncccc21 [Example 344, (5S,8S)-N-(2-chloro-4-fluorobenzyl)-5-fluoro-8-(2-hydroxyethoxy)-5,6,7,8-tetrahydroquinoline-5-carboxamide]
< 50 nM	< 1000 nM	O=C(NCc1ccc(F)c(F)c1F)[C@]1(F)CC[C@H](OCCO)c2ncccc21 [Example 345, (5S,8S)-5-fluoro-8-(2-hydroxyethoxy)-N-(2.3.4-trifluorobenzyl)-5,6,7,8-tetrahydroquinoline-5-carboxamide]
< 50 nM	< 1000 nM	O=C(NCc1ccc(Cl)cc1F)[C@]1(F)CC[C@H](OCCO)c2ncccc21 [Example 346, (5S,8S)-N-(4-chloro-2-fluorobenzyl)-5-fluoro-8-(2-hydroxyethoxy)-5,6,7,8-tetrahydroquinoline-5-carboxamide]
50 to 100 nM	< 1000 nM	O=C(NCc1ccc(F)cc1F)[C@]1(F)CC[C@H](OCCO)c2ncccc21 [Example 347, (5S,8S)-N-(2,4-difluorobenzyl)-5-fluoro-8-(2-hydroxyethoxy)-5,6,7,8-tetrahydroquinoline-5-carboxamide]
